Test results reported in patent publication US20220273607A1, “METHODS OF USING MODIFIED […] TREAT CANCER” (NORTHWESTERN UNIVERSITY, priority 2019, published 2022).

Experiments:
Type in all cases: cell-based
[1] = test system: HepG2 cells; assay: CellTiter Blue cytotoxicity with and without CD36 blocker SSO, HepG2; details: different compound concentrations and different concentrations of SSO, FIG. 5
[2] = test system: HT-1080 cells; assay: CellTiter Blue cytotoxicity with and without CD36 blocker SSO, HT-1080; details: different compound concentrations and different concentrations of SSO, FIG. 3
Description: The compound of Example 2 (ODDA-PTX) was compared with paclitaxel (PTX) in terms of cellular uptake. The comparison was carried out in HT-1080 cell culture using sulfosuccinimidyl oleate (SSO), a chemical blocker of fatty acid translocase/CD36:
Cytotoxicity of the compounds was evaluated using the CellTiter Blue (CTB) assay (Promega, cat G8081). Treatments of fatty acid-conjugates were prepared as 1000× serial stock dilutions in DMSO, then diluted into media for 1×, 0.1% DMSO treatment solutions. […]
Expression of CD36 in HT-1080 was validated using flow cytometry and a fluorophore-conjugated CD36 antibody (CD36, eFluor 660, clone: eBioNL07 (NL07), eBioscience). […] Cells were resuspended in a final volume of 100 μL resuspension and analyzed via flow cytometry for presence of CD36. […]
HT-1080 cells were plated in 96-well plates one day before treatment, at a seeding density of 10,000 cells/well. […] Fluorescence was measured at 590 nm with excitation at 560 nm using a Perkin Elmer EnSpire plate reader. Average background fluorescence readings of the experimental wells (three wells per treatment concentration). Viability was calculated as the average background-subtracted signal in a well compared to that of a negative control (cells treated with vehicle, […] in media). […]

[3] = test system: MCF-7 cells; assay: CellTiter Blue cytotoxicity with and without CD36 blocker SSO, MCF-7; details: different compound concentrations and different concentrations of SSO, FIG. 4

## CC(=O)O[C@H]1C(=O)[C@@]2(C)[C@H]([C@H](OC(=O)c3ccccc3)[C@]3(O)C[C@H](OC(=O)[C@H](OC(=O)CCCCCCCCCCCCCCCCC(=O)O)[C@@H](NC(=O)c4ccccc4)c4ccccc4)C(C)=C1C3(C)C)[C@]1(OC(C)=O)CO[C@@H]1C[C@@H]2O [ODDA-PTX, Paclitaxel-C18 Diacid Conjugate]
[1]
  change of percent viability of the cells with increasing concentration of the CD36 inhibitor: increasing the concentration of the CD36 inhibitor correlates with increasing percent viability
[2]
  change of percent viability of the cells with increasing concentration of the CD36 inhibitor: increasing the concentration of the CD36 inhibitor correlates with increasing percent viability
[3]
  change of percent viability of the cells with increasing concentration of the CD36 inhibitor: increasing the concentration of the CD36 inhibitor correlates with increasing percent viability
